Laboratory results taken from patent US8389468B2, “Approach to the treatment of compartment syndrome” (Lantmannen AS-Faktor AB, priority 2006, dated 2013).
“Also recorded” adds a separate entry of the source.

Columns and labels:
[1] = tested on: HSV-1 infected rats; assay: Intracranial pressure (ICP) and neurological symptoms in HSV-1 infected rats, fibre optic pressure sensor; assay type: in vivo, rat
Experimental: Adult rats were infected by having a solution of the Herpes Simplex virus type 1 (HSV-1; strain 2762, batch 041028; 1.7×10^7 PFU/mL; 25 pL) instilled in their right nostril. One group of animals (n=6) received 10 min after the infection 25 pL (10 pg) of AF-16 in their right nostril, and had thereafter the same dose of AF-16 instilled twice daily, every morning at 8 AM and every night at 6 PM, until the experiment was terminated on day 6. Additional HSV-1 infected rats (n=6) received in the nose at the same time intervals 25 pL of the vehicle, phosphate buffered saline (PBS). On day 6, the animals were anaesthetized, a surgical incision made through the skin on the head, and the skull bone freed from periostium and connective tissue. A hole with a diameter of about 1 mm was drilled through the right parietal bone and a miniature pressure sensor inserted 3-5 mm into the brain or into the lateral ventricle. A fibre optic pressure measure system (Samba System 3200 & Samba Preclin 420 sensor; Samba Sensors AB, V Frolunda, Sweden) with a very small diameter, ve. 0.4 mm, was used. […] HSV-1 infected rats treated with just the vehicle were measured to have as high pressures as up to 30-45 mm Hg (FIG. 2a), considerably affect the animals as reflected by symptoms of neurological dysfunction of increasing severity. In contrast, HSV-1 infected rats treated from the time of infection with AF-16 twice daily had almost normal ICP, 8-14 mm Hg (FIG. 2 b).
Additional HSV-1 infected animals with distinctly overt symptoms were as well treated with 10 or 25 pg AF-16 intranasally, starting on day 5, 6 or 7, i.e. after having had the vehicle during the previous days. […] Thus, non of the acutely AF-16 treated rats had any persistent signs of deleterious ICP and thus no CS developed. […] That is seen in the mentioned figure (FIG. 5 a) as there is no red staining of the right half on the figure. However, treatment with 10 or 25 pg AF-16 intranasally turned the picture in HSV-1 infected rats as in the normal, non-infected ones. […] Thereby the outflow of CSF was restored and the ICP turned normal.

[2] = tested on: HSV-1; assay: PCR of HSV-1 DNA copies in brain tissue, rats; assay type: in vivo, rat; details: 1 or 10 pg intranasally twice daily
Text: FIG. 5: Quantitative PCR performed on brain tissues from rats infected in their right nostril with HSV-1. The brain specimens were obtained between 5 to 14 days after virus inoculation in the right nostril.
The improved survival of the HSV-1 infected rodents, as illustrated in example #2, could tentatively be due to that AF-16 blocked or at least reduced the proliferation of HSV1 virus in the infected brain. Therefore, adult rats were infected by having a solution of the herpes simplex virus type 1 (HSV-1; strain 2762, batch 041028; 1.7×10^7 PFU/mL) instilled in their right nostril. Half of the infected animals received 10 min later 25 pL (1 or 10 pg) of AF-16 in their right nostril, and had thereafter the same dose of AF-16 instilled every morning at 8 AM and every night at 6 PM until the experiment was terminated on day 6. The other groups of the HSV-1 infected rats received at the same time intervals 25 μL of the vehicle, PBS. The animals were closely watched for signs of general sickness and of behavioral and motor dysfunction. The animals were sacrificed by an overdose of anesthetics on day 6, the skull was then rapidly opened and the brain removed. […]

[3] = tested on: HSV-1; assay: Immunohistochemical demonstration of HSV antigens in brain, mice; assay type: in vivo; details: instillation twice daily in right nostril, six days
Experimental: An alternative explanation to the improved survival of HSV-1 infected animals could be that the treatment with AF-16 prevented the virus from multiplying and/or spreading in the brain. […] Adult rats were infected by having a solution of the herpes simplex virus type 1 (HSV-1; strain 2762, batch 041028; 1.7×10^7 PFU/mL) instilled in their right nostril. Half of the animals received 10 min later 25 pi_ (1 or 10 pg) of AF-16 in their right nostril, and had thereafter the same dose of AF-16 instilled every morning at 8 AM and every night at 6 PM until the experiment was terminated on day 6. The other groups of the HSV-1 infected rats received at the same time intervals 25 pL of the vehicle, PBS. The animals were closely watched for signs of general sickness and of behavioral and motor dysfunction. The animals were sacrificed by an overdose of anesthetics on day 6, the skull opened and the brain removed. The brains, including the olfactory bulbs, were fixed by immersion in buffered formalin for at least a day. The brains were the dissected and divided in several specimens, which were processed for light microscopic investigation after paraffin embedding and sectioning. The sections were processed for routine staining and for immunohistochemical visualization of HSV-1 proteins (FIG. 4). […] Note the distinct staining of the nerve cells (black in FIG. 4a-c).

[4] = tested on: Staphylococcus areus (SA; strain LS1) infected joints; assay: Arthritis by arthritogenic Staphylococcus areus (strain LS1), joint pressure; assay type: in vivo, rat
Text: Joints are enclosed by tender, noncompliant collagen capsules, further characterised by low elasticity but plasticity. At arthritis, the pressure in the synovial fluid in the joint cavity turns elevated, and inflammation adds to the symptoms. A CS is prevalent. In order to investigate if treatment with AF-16 could prevent or at least reduce the development of such a CS, adult rats were infected by systemic injection of a solution of an arthritogenic Staphylococcus areus (SA; strain LS1). One group of animals (n=3) were treated with AF-16 while a second group of rats (n=3) just received the vehicle, PBS. After a few days the knee joints and later on additional limb and foot joints turned tender, swollen and got elevated pressure in the joint cavities, as measured with the Samba Fibre Optic Pressure probe (Samba System 3200 & Samba Preclin 420 sensor; Samba Sensors AB, Gruvgatan 6, SE 42130 V. Frolunda, Sweden), as well as in the immediately surrounding tissue. The pressure in a normal synovial large joint is 0-5 mm Hg, but could increase more than five-fold in infected, inflamed joints. The interstitial fluid pressure in the subcutaneous tissue at a distance from the infected joint was measured for comparison and found to remain within normal limits, ±2 mm Hg. […] Infected animals, which only received treatment with the vehicle, PBS, developed CS of with time increasing severity.

[5] = overt symptoms, 10 or 25 pg intranasally starting on day 5, 6 or 7

What does the source list for VCHSKTRSNPENNVGL [AF-16]?
intracranial pressure (ICP) ([1]; HSV-1 infected rats, 10 pg AF-16 intranasally twice daily from time of infection, day 6, normal rats 4-8, vehicle 30-45): 8-14 mm Hg; development of neurological dysfunctions ([1]; intranasal treatment twice daily from infection): prevented the development of neurological dysfunctions; onset and duration of pressure reducing effect [1, 5]: detectable within an hour and lasted for several hours; symptoms of neurological dysfunctions after acute treatment [1, 5]: turned reduced within half an hour and were not demonstrable any longer after one hour; HSV-1 DNA copies in brain tissue vs vehicle [2]: no significant difference with regard to prevalence and distribution of HSV-1 DNA copies; also recorded: does not significantly affect the HSV-1 production; distribution or extent of virus antigens in the brain vs vehicle [3]: no obvious difference in the distribution or extent of virus antigens; joint tenderness, swelling, pain ([4]; SA infected large joint): did not have that tender, swollen and painful joints; pressure in the infected joint ([4]; SA infected large joint, n=3, normal joint 0-5 mm Hg): close to normal pressure in the joint; number of S. areus in synovial fluid, treated vs not ([4]; larger joints): about the same
